In one data set the test system is INS-1 β-cells. In words: Insulin secretion by rat INS-1 / INS-1E insulinoma cells. It counts as cell-based. The settings on record: INS-1E cells, 0.5 mM glucose, single representative experiment. Here is the method: The incubation was done using two types of culture media, defined as low glucose (0.5–3 mM) and high glucose (15 mM). […] Incubation with compounds lasted 30 min, and then the media was collected, centrifuged at 4 °C for 2 min until assayed for insulin using commercial ELISA kit.

In the next data set the test system is EndoC-βH1 cells. Briefly: Insulin secretion by human pancreatic EndoC-βH1 cells. The settings on record: high glucose concentration. It counts as cell-based. The method, then: Both cell lines were cultured in RPMI 1640 medium supplemented with 10% fetal calf serum as described. Cell monolayers were incubated at 37 °C in a 7.5% CO2 atmosphere. For insulin secretion studies, cells were detached, washed once with glucose-free medium and placed in 48 multiwell plates (100,000 cells per well) and kept in glucose-free medium for 1.5 h prior to incubation with drugs. The incubation was done using two types of culture media, defined as low glucose (0.5–3 mM) and high glucose (15 mM). […] Incubation with compounds lasted 30 min, and then the media was collected, centrifuged at 4 °C for 2 min until assayed for insulin using commercial ELISA kit.

The next data set deals with hGLP-1R (Homo sapiens, UniProt P43220). Briefly: cAMP accumulation in HEK-293 cells expressing hGLP-1R (HEK-GLP-1 cells). In kind it is cell-based. The settings on record: HEK293, read-out: Potentiation of GLP-1 Emax at 10 ?M in a cAMP assay (%); 10 ?M compound (supplementary csv). Here is the method:
After this time the culture medium was replaced by 20 μL fresh Opti-MEM containing 500 μM IBMX and 100 μM K579 and incubated with gentle stirring for 10 min at rt. […] Concentration-response curves were fitted to a 4-parameter logistic equation by using GraphPad Prism 2.1 software.
(In general: cAMP levels reflect the balance of adenylyl cyclase and phosphodiesterase activity.)

hGLP-1R, sequence (P43220 24-463): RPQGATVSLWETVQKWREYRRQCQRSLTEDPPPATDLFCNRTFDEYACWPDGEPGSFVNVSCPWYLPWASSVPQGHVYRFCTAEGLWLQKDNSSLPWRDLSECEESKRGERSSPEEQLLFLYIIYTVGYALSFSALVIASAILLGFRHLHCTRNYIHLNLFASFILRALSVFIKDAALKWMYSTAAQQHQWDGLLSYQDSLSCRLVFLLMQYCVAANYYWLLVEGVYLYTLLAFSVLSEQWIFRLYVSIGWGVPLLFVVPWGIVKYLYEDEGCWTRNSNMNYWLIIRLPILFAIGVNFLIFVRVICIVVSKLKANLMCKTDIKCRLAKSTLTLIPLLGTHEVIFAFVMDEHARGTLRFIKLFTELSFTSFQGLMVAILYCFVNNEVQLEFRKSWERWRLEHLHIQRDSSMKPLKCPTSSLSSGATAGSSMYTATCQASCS

Turning to `FC(F)(F)c1ccc(-c2noc(CN3CCC[C@H](CN4CCOCC4)C3)n2)cc1` [(R)-9, (−)-4-{[(3R)-1-({3-[4-(Trifluoromethyl)phenyl]-1,2,4-oxadiazol-5-yl}methyl)piperidin-3-yl]methyl}morpholine], the “Insulin secreted” value in the data set on INS-1 β-cells (0.1 nM test substance) was determined as 19 ng/mL; with INS-1 β-cells (1 nM test substance), 31 ng/mL; with INS-1 β-cells (10 nM test substance), 39 ng/mL. The “potentiation of insulin secretion stimulated by GLP-1 (in words)” value in the data set with EndoC-βH1 cells is reported as “similarly potentiate insulin secretion stimulated by GLP-1”.

As to `CC[C@H](C)[C@H](NC(=O)[C@H](Cc1ccccc1)NC(=O)[C@H](CCC(=O)O)NC(=O)[C@H](CCCCN)NC(=O)[C@H](C)NC(=O)[C@H](C)NC(=O)[C@H](CCC(N)=O)NC(=O)CNC(=O)[C@H](CCC(=O)O)NC(=O)[C@H](CC(C)C)NC(=O)[C@H](Cc1ccc(O)cc1)NC(=O)[C@H](CO)NC(=O)[C@H](CO)NC(=O)[C@@H](NC(=O)[C@H](CC(=O)O)NC(=O)[C@H](CO)NC(=O)[C@@H](NC(=O)[C@H](Cc1ccccc1)NC(=O)[C@@H](NC(=O)CNC(=O)[C@H](CCC(=O)O)NC(=O)[C@H](C)NC(=O)[C@@H](N)Cc1c[nH]cn1)[C@@H](C)O)[C@@H](C)O)C(C)C)C(=O)N[C@@H](C)C(=O)N[C@@H](Cc1c[nH]c2ccccc12)C(=O)N[C@@H](CC(C)C)C(=O)N[C@H](C(=O)N[C@@H](CCCCN)C(=O)NCC(=O)N[C@@H](CCCNC(=N)N)C(N)=O)C(C)C` [GLP-1, GLP-1(7-36)-NH2, reference compound], the “Insulin secreted” value was 25 ng/mL in the data set on INS-1 β-cells (0.1 nM test substance), 28 ng/mL in the data set with INS-1 β-cells (1 nM test substance), 34 ng/mL with INS-1 β-cells (10 nM test substance) and 32 ng/mL with INS-1 β-cells (100 nM test substance).

On to `CNc1ccccc1-c1noc(CN2CCCC(CN3CCOCC3)C2)n1` (stereo not drawn) [S73], for which, on hGLP-1R, the Emax is less than 30%.

On to `CNc1cccc(-c2noc(CN3CCCC(CN4CCOCC4)C3)n2)c1` (stereo not drawn) [S74], for which the Emax on hGLP-1R was less than 30%.

On to `CNc1ccc(-c2noc(CN3CCCC(CN4CCOCC4)C3)n2)cc1` (stereo not drawn) [S75], for which the Emax on hGLP-1R was less than 30%.

With `Fc1ccccc1-c1noc(CN2CCCC(CN3CCOCC3)C2)n1` (stereo not drawn) [S76], on hGLP-1R, the Emax is less than 30%.

With `Fc1cccc(-c2noc(CN3CCCC(CN4CCOCC4)C3)n2)c1` (stereo not drawn) [S77], the Emax on hGLP-1R was less than 30%.

On to `Fc1ccc(-c2noc(CN3CCCC(CN4CCOCC4)C3)n2)cc1` (stereo not drawn) [S78], for which the maximum response (Emax) on hGLP-1R was less than 30%.

For `Clc1ccccc1-c1noc(CN2CCCC(CN3CCOCC3)C2)n1` (stereo not drawn) [S79], the Emax on hGLP-1R was less than 30%.

Turning to `Clc1cccc(-c2noc(CN3CCCC(CN4CCOCC4)C3)n2)c1` (stereo not drawn) [S80], the Emax on hGLP-1R is less than 30%.

As for `Clc1ccc(-c2noc(CN3CCCC(CN4CCOCC4)C3)n2)cc1` (stereo not drawn) [S81], the Emax at hGLP-1R was less than 30%.

For the compound `COC(=O)c1cccc(-c2noc(CN3CCCC(CN4CCOCC4)C3)n2)c1` (stereo not drawn) [S82], the Emax at hGLP-1R was less than 30%.

Take `COC(=O)c1ccc(-c2noc(CN3CCCC(CN4CCOCC4)C3)n2)cc1` (stereo not drawn) [S83]: at hGLP-1R, the Emax was less than 30%.

For the compound `NC(=O)c1cccc(-c2noc(CN3CCCC(CN4CCOCC4)C3)n2)c1` (stereo not drawn) [S84], the maximum response (Emax) on hGLP-1R is less than 30%.

Turning to `NC(=O)c1ccc(-c2noc(CN3CCCC(CN4CCOCC4)C3)n2)cc1` (stereo not drawn) [S85], the Emax on hGLP-1R is less than 30%.

Turning to `CNC(=O)c1cccc(-c2noc(CN3CCCC(CN4CCOCC4)C3)n2)c1` (stereo not drawn) [S86], the Emax on hGLP-1R was less than 30%.

For the compound `CNC(=O)c1ccc(-c2noc(CN3CCCC(CN4CCOCC4)C3)n2)cc1` (stereo not drawn) [S87], the Emax on hGLP-1R was less than 30%.

Compound `Cl.NC(=O)C1CCN(Cc2nc(-c3ccc(C(F)(F)F)cc3)no2)CC1` [compound 7, 1-({3-[4-(Trifluoromethyl)phenyl]-1,2,4-oxadiazol-5-yl}methyl)piperidine-4-carboxamide] had a melting point of 187 to 188 °C.

A word on the Emax: it is the maximal effect, on the per cent scale that the assay sets. As usually defined, the melting point is the temperature, or range, at which the solid turns liquid.

These data come from paper PMC9014410, “Discovery of V-0219: A Small-Molecule Positive Allosteric Modulator of the Glucagon-Like Peptide-1 Receptor toward Oral Treatment for “Diabesity”” (Journal of Medicinal Chemistry, 2022).
